Measured values reported in patent US9546164B2 (GENENTECH, INC., priority 2013, dated 2017).
pIC50: −log10 of the molar value. Where a name gives a salt, the structure may show the parent alone.

What follows are compounds tested against hNav1.7 (Homo sapiens (Human), UniProt Q15858) (assay: Tritiated sulfonamide competitive binding to membranes from cells expressing hNav1.7 and the β1 subunit). Conditions: read-out: Ligand Binding Assay; 100 pM [3H]compound, membranes with hNav1.7 and β1 subunit, 18 h, room temperature.
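Note: Filter-bound radioactivity counted by liquid scintillation, nonspecific binding defined with excess unlabelled ligand, IC50 fitted to percent inhibition of specific binding.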

hNav1.7, sequence (Q15858 other isoform, or with tags, fused parts or gaps): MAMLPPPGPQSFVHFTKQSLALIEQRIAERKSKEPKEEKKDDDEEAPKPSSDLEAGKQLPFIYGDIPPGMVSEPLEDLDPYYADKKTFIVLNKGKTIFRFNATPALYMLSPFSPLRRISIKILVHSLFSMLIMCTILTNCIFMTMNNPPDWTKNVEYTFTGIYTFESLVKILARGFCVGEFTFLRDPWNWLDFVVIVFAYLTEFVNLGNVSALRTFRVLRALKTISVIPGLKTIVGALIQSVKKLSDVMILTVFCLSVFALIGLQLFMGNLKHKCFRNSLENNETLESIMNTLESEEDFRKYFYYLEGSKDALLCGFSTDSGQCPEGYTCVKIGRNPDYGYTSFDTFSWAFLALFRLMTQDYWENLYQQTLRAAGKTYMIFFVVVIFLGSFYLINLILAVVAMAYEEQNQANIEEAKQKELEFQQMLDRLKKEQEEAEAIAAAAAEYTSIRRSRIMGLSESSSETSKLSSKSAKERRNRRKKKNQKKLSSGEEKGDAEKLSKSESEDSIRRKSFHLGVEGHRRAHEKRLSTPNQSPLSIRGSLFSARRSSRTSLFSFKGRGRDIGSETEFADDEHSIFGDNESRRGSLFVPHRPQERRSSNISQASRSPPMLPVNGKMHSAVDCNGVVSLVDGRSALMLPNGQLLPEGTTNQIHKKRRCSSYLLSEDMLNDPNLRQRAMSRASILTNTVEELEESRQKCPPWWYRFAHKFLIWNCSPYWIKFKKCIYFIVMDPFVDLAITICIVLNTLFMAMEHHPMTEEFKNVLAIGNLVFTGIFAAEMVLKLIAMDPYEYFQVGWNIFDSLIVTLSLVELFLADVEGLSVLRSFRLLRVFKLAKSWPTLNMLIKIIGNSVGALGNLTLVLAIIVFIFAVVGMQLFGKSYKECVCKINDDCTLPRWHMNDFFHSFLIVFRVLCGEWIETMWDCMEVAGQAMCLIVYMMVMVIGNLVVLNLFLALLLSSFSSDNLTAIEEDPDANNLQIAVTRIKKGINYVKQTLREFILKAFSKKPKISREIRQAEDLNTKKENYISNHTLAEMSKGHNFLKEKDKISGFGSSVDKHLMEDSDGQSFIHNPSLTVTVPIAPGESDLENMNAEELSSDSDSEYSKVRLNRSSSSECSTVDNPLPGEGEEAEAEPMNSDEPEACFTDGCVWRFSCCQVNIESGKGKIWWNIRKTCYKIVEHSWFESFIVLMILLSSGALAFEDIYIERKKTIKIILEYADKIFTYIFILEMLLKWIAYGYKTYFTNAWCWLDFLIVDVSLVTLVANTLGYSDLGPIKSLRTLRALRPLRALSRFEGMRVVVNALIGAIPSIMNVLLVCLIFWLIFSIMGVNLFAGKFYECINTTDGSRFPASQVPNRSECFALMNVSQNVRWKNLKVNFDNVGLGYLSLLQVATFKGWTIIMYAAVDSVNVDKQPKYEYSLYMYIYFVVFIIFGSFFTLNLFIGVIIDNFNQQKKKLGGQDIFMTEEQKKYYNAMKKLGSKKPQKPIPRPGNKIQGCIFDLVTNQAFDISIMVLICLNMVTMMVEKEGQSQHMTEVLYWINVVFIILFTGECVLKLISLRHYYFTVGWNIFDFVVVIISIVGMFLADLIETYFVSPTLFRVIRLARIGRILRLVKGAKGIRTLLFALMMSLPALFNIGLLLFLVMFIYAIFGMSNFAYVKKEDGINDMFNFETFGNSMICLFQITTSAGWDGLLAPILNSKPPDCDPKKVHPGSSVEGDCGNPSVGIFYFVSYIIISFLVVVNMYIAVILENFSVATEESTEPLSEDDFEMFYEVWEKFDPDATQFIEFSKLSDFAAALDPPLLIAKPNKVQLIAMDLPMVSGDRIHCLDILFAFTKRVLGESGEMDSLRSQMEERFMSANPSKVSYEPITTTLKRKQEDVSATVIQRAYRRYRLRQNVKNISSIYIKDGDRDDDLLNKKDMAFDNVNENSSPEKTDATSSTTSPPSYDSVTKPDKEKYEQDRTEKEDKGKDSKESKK
hNav1.7, sequence (Q07699 19-218 partner): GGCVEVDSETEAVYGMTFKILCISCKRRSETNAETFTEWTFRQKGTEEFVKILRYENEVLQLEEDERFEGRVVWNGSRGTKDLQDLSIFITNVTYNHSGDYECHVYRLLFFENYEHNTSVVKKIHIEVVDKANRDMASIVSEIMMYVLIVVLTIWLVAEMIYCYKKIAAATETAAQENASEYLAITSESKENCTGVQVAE

| Compound | pIC50 |
| --- | --- |
| CS(=O)(=O)NC(=O)c1cc(C2CC2)c(OCC2CCN(C(c3cccc(Cl)c3)c3cccc(Cl)c3)CC2)cc1F [Example 352, 4-((1-(bis(3-chlorophenyl)methyl)piperidin-4-yl)methoxy)-5-cyclopropyl-2-fluoro-N-(methylsulfonyl)benzamide, trifluoroacetic acid salt] | 8.70 |
| C[C@H](c1cc(Cl)cc(Cl)c1)N1[C@@H]2CC[C@H]1C[C@H](COc1cc(F)c(C(=O)NS(C)(=O)=O)cc1C1CC1)C2 [Example 353, 5-cyclopropyl-4-(((1R,3S,5S)-8-((R)-1-(3,5-dichlorophenyl)ethyl)-8-azabicyclo[3.2.1]octan-3-yl)methoxy)-2-fluoro-N-(methylsulfonyl)benzamide, trifluoroacetic acid salt] | 7.96 |
| CC(C)c1nc(CN2CCC(COc3cc(F)c(C(=O)NS(=O)(=O)C4CC4)cc3C3CC3)CC2)cs1 [Example 355, 5-cyclopropyl-N-(cyclopropylsulfonyl)-2-fluoro-4-((1-((2-isopropylthiazol-4-yl)methyl)piperidin-4-yl)methoxy)benzamide trifluoroacetic acid salt] | 6.93 |
| Cn1nc(C(F)(F)F)c(CN2CCC(COc3cc(F)c(C(=O)NS(=O)(=O)C4CC4)cc3C3CC3)CC2)c1Cl [Example 357, 4-((1-((5-chloro-1-methyl-3-(trifluoromethyl)-1H-pyrazol-4-yl)methyl)piperidin-4-yl)methoxy)-5-cyclopropyl-N-(cyclopropylsulfonyl)-2-fluorobenzamide, trifluoroacetic acid salt] | 7.89 |
| CS(=O)(=O)NC(=O)c1cc(C2CC2)c(OCC2CCN(C(CF)c3cc(Cl)cc(Cl)c3)CC2)cc1F (stereo not shown) [Example 358, 5-cyclopropyl-4-((1-(1-(3,5-dichlorophenyl)-2-fluoroethyl)piperidin-4-yl)methoxy)-2-fluoro-N-(methylsulfonyl)benzamide, trifluoroacetic acid salt] | 7.85 |
| O=C(NS(=O)(=O)C1CC1)c1cc(C2CC2)c(OCC2CCN(C(c3ccc(F)cc3)c3ccc(F)cc3)CC2)cc1F [Example 363, 4-((1-(bis(4-fluorophenyl)methyl)piperidin-4-yl)methoxy)-5-cyclopropyl-N-(cyclopropylsulfonyl)-2-fluorobenzamide, trifluoroacetic acid salt] | 8.24 |
| O=C(NS(=O)(=O)C1CC1)c1cc(C2CC2)c(OCC2CCN(Cc3ncccc3C(F)(F)F)CC2)cc1F [Example 364, 5-cyclopropyl-N-(cyclopropylsulfonyl)-2-fluoro-4-((1-((3-(trifluoromethyl)pyridin-2-yl)methyl)piperidin-4-yl)methoxy)benzamide, trifluoroacetic acid salt] | 7.09 |
| CS(=O)(=O)NC(=O)c1cc(C2CC2)c(OCC2CCN(S(=O)(=O)c3ccccc3C(F)(F)F)CC2)cc1F [Example 370, 5-cyclopropyl-2-fluoro-N-(methylsulfonyl)-4-((1-((2-(trifluoromethyl)phenyl)sulfonyl)piperidin-4-yl)methoxy)benzamide] | 7.51 |
| O=C(NS(=O)(=O)C1CC1)c1cc(C2CC2)c(OCC2CCN(S(=O)(=O)c3ccccc3C(F)(F)F)CC2)cc1F [Example 371, 5-cyclopropyl-N-(cyclopropylsulfonyl)-2-fluoro-4-((1-((2-(trifluoromethyl)phenyl)sulfonyl)piperidin-4-yl)methoxy)benzamide] | 7.69 |
| CS(=O)(=O)NC(=O)c1cc(C2CC2)c(OCC2CCN(S(=O)(=O)c3ccc(C(F)(F)F)cc3)CC2)cc1F [Example 372, 5-cyclopropyl-2-fluoro-N-(methylsulfonyl)-4-((1-((4-(trifluoromethyl)phenyl)sulfonyl)piperidin-4-yl)methoxy)benzamide] | 7.31 |
| O=C(NS(=O)(=O)C1CC1)c1cc(C2CC2)c(OCC2CCN(S(=O)(=O)c3ccc(C(F)(F)F)cc3)CC2)cc1F [Example 373, 5-cyclopropyl-N-(cyclopropylsulfonyl)-2-fluoro-4-((1-((4-(trifluoromethyl)phenyl)sulfonyl)piperidin-4-yl)methoxy)benzamide] | 7.71 |
| CS(=O)(=O)NC(=O)c1cc(C2CC2)c(OCC2CCN(S(=O)(=O)c3cccc(C(F)(F)F)c3)CC2)cc1F [Example 374, 5-cyclopropyl-2-fluoro-N-(methylsulfonyl)-4-((1-((3-(trifluoromethyl)phenyl)sulfonyl)piperidin-4-yl)methoxy)benzamide] | 7.64 |
| O=C(NS(=O)(=O)C1CC1)c1cc(C2CC2)c(OCC2CCN(S(=O)(=O)c3cccc(C(F)(F)F)c3)CC2)cc1F [Example 375, 5-cyclopropyl-N-(cyclopropylsulfonyl)-2-fluoro-4-((1-((3-(trifluoromethyl)phenyl)sulfonyl)piperidin-4-yl)methoxy)benzamide] | 7.84 |

The next lines start with the values.

| pIC50 | Compound |
| --- | --- |
| 5.57 | Cc1nc(CN2CCC(COc3cc(F)c(C(=O)NS(=O)(=O)C4CC4)cc3C3CC3)CC2)cs1 [Example 354, 5-cyclopropyl-N-(cyclopropylsulfonyl)-2-fluoro-4-((1-((2-methylthiazol-4-yl)methyl)piperidin-4-yl)methoxy)benzamide, trifluoroacetic acid salt] |
| 8.24 | CC(C)Nc1ccc(F)cc1CN1CCC(COc2cc(F)c(C(=O)NS(=O)(=O)C3CC3)cc2C2CC2)CC1 [Example 356, 5-cyclopropyl-N-(cyclopropylsulfonyl)-2-fluoro-4-((1-(5-fluoro-2-(isopropylamino)benzyl)piperidin-4-yl)methoxy)benzamide, trifluoroacetic acid salt] |
| 7.94 | Cc1cc(C(=O)NS(=O)(=O)C2CC2)c(F)cc1OCC1CCN([C@@H](C)c2cc(Cl)cc(Cl)c2)CC1 [Example 359, (S)—N-(cyclopropylsulfonyl)-4-((1-(1-(3,5-dichlorophenyl)ethyl)piperidin-4-yl)methoxy)-2-fluoro-5-methylbenzamide trifluoroacetic acid salt] |
| 7.89 | Cc1cc(C(=O)NS(C)(=O)=O)c(F)cc1OCC1CCN([C@@H](C)c2cc(Cl)cc(Cl)c2)CC1 [Example 360, (S)-4-((1-(1-(3,5-dichloro)ethyl)piperidin-4-yl)methoxy)-2-fluoro-5-methyl-N-(methylsulfonyl)benzamide, trifluoroacetic acid] |
| 8.70 | CS(=O)(=O)NC(=O)c1cc(C2CC2)c(OCC2CCN(C(c3ccccc3Cl)c3ccccc3Cl)CC2)cc1F [Example 361, 4-((1-(bis(2-chlorophenyl)methyl)piperidin-4-yl)methoxy)-5-cyclopropyl-2-fluoro-N-(methylsulfonyl)benzamide, trifluoroacetic acid salt] |
| 8.54 | CS(=O)(=O)NC(=O)c1cc(C2CC2)c(OCC2CCN(C(c3ccc(Cl)cc3)c3ccc(Cl)cc3)CC2)cc1F [Example 362, 4-((1-(bis(4-chlorophenyl)methyl)piperidin-4-yl)methoxy)-5-cyclopropyl-2-fluoro-N-(methylsulfonyl)benzamide, trifluoroacetic acid salt] |
| 6.49 | CS(=O)(=O)NC(=O)c1cc(C2CC2)c(OCC2CCN(Cc3ncccc3C(F)(F)F)CC2)cc1F [Example 365, 5-cyclopropyl-2-fluoro-N-(methylsulfonyl)-4-((1-((3-(trifluoromethyl)pyridin-2-yl)methyl)piperidin-4-yl)methoxy)benzamide, trifluoroacetic acid salt] |
| 8.04 | CS(=O)(=O)NC(=O)c1cc(C2CC2)c(OCC2CCN(S(=O)(=O)c3cc(Cl)c(Br)cc3F)CC2)cc1F [Example 366, 4-((1-((4-bromo-5-chloro-2-fluorophenyl)sulfonyl)piperidin-4-yl)methoxy)-5-cyclopropyl-2-fluoro-N-(methylsulfonyl)benzamide] |
| 8.08 | O=C(NS(=O)(=O)C1CC1)c1cc(C2CC2)c(OCC2CCN(S(=O)(=O)c3cc(Cl)c(Br)cc3F)CC2)cc1F [Example 367, 4-((1-((4-bromo-5-chloro-2-fluorophenyl)sulfonyl)piperidin-4-yl)methoxy)-5-cyclopropyl-N-(cyclopropylsulfonyl)-2-fluorobenzamide] |
| 7.60 | CS(=O)(=O)NC(=O)c1cc(C2CC2)c(OCC2CCN(S(=O)(=O)c3ccc(Br)c(F)c3)CC2)cc1F [Example 368, 4-((1-((4-bromo-3-fluorophenyl)sulfonyl)piperidin-4-yl)methoxy)-5-cyclopropyl-2-fluoro-N-(methylsulfonyl)benzamide] |
| 7.84 | O=C(NS(=O)(=O)C1CC1)c1cc(C2CC2)c(OCC2CCN(S(=O)(=O)c3ccc(Br)c(F)c3)CC2)cc1F [Example 369, 4-((1-((4-bromo-3-fluorophenyl)sulfonyl)piperidin-4-yl)methoxy)-5-cyclopropyl-N-(cyclopropylsulfonyl)-2-fluorobenzamide] |
| 5.61 | CS(=O)(=O)NC(=O)c1cc(C2CC2)c(OCC2CCN(S(=O)(=O)C3CCOCC3)CC2)cc1F [Example 376, 5-cyclopropyl-2-fluoro-N-(methylsulfonyl)-4-((1-((tetrahydro-2H-pyran-4-yl)sulfonyl)piperidin-4-yl)methoxy)benzamide] |
| 5.90 | O=C(NS(=O)(=O)C1CC1)c1cc(C2CC2)c(OCC2CCN(S(=O)(=O)C3CCOCC3)CC2)cc1F [Example 377, 5-cyclopropyl-N-(cyclopropylsulfonyl)-2-fluoro-4-((1-((tetrahydro-2H-pyran-4-yl)sulfonyl)piperidin-4-yl)methoxy)benzamide] |
| 7.34 | CS(=O)(=O)NC(=O)c1cc(C2CC2)c(OCC2CCN(S(=O)(=O)c3ccc(OC(F)(F)F)cc3)CC2)cc1F [Example 378, 5-cyclopropyl-2-fluoro-N-(methylsulfonyl)-4-((1-((4-(trifluoromethoxy)phenyl)sulfonyl)piperidin-4-yl)methoxy)benzamide] |
| 7.76 | O=C(NS(=O)(=O)C1CC1)c1cc(C2CC2)c(OCC2CCN(S(=O)(=O)c3ccc(OC(F)(F)F)cc3)CC2)cc1F [Example 379, 5-cyclopropyl-N-(cyclopropylsulfonyl)-2-fluoro-4-((1-((4-(trifluoromethoxy)phenyl)sulfonyl)piperidin-4-yl)methoxy)benzamide] |
